Test system: pERK in human cutaneous neurofibroma explants
Experiment: Human cutaneous neurofibroma explant pERK suppression (Western blot)
Format: cell-based
Protocol: Explant Protocol: Human cutaneous neurofibroma explant samples were collected in DMEM/F-12 (Thermo Fisher, Cat #11320033) supplemented with 1×B27 supplement (Thermo Fisher, Cat #17504044), 2.5 μg/ml of Amphotericin B (Thermo Fisher, Cat #15290018), and 50 units/ml of Penicillin-50 μg/ml of Streptomycin (Thermo Fisher, Cat #15070063) and incubated in the same medium for subsequent treatment. The specimen was cut into small cubes containing both the epidermis and dermis. The tissues were partially submerged in the medium in 384-well plate with the epidermis exposed to the air.
The tissues were fully submerged in the medium in 48-well plate and 5 μl of compounds dissolved in DMSO were added to 200 μl of the medium in each well. After 4 h incubation at 37° C. and 5% CO2, the tissues were harvested and half of the specimen was flash frozen in liquid nitrogen for Western Blot analysis. The other half of the specimen was fixed for 24 hours in 10% formalin and then transferred to 70% ethanol for […].
Skin samples were thawed on ice and weighed. 10 volume (10 μl for each mg of tissue) of lysis buffer (RIPA buffer+0.5 mM EDTA+1×Halt protease and phosphatase inhibitor cocktail) was then added to each sample. […]
Western Blot analysis: The lysate was thawed on ice and protein concentration was determined by the BCA protein assay kit using bovine serum albumin (BSA) as standards. […]

## N#Cc1ccc(C(=O)NOCCO)c(Nc2ccc(I)cc2F)c1F [Compound 1.030, 4-cyano-3-fluoro-2-((2-fluoro-4-iodophenyl)amino)-N-(2-hydroxyethoxy) benzamide]
Concentration of 500 nM (FIG. 5)
  suppression of pERK in human cutaneous neurofibroma (cNF) explants: suppression of pERK
Treatment for 4 hours at 5 nM, 50 nM, and 500 nM (FIG. 4)
  suppression of pERK in human cutaneous neurofibroma (cNF) explants: suppression of pERK
